For 1 compound, EC50 results are on record in patent US10000512B2, “Compounds for the treatment of infectious diseases” (Hoffmann-La Roche Inc., priority 2014, dated 2018).

By EC50 is commonly meant the concentration giving half of the maximal effect.

For one test, the target named is T1, human TLR7 (Homo sapiens, UniProt Q9NYK1).
T1 sequence (Q9NYK1 27-1049): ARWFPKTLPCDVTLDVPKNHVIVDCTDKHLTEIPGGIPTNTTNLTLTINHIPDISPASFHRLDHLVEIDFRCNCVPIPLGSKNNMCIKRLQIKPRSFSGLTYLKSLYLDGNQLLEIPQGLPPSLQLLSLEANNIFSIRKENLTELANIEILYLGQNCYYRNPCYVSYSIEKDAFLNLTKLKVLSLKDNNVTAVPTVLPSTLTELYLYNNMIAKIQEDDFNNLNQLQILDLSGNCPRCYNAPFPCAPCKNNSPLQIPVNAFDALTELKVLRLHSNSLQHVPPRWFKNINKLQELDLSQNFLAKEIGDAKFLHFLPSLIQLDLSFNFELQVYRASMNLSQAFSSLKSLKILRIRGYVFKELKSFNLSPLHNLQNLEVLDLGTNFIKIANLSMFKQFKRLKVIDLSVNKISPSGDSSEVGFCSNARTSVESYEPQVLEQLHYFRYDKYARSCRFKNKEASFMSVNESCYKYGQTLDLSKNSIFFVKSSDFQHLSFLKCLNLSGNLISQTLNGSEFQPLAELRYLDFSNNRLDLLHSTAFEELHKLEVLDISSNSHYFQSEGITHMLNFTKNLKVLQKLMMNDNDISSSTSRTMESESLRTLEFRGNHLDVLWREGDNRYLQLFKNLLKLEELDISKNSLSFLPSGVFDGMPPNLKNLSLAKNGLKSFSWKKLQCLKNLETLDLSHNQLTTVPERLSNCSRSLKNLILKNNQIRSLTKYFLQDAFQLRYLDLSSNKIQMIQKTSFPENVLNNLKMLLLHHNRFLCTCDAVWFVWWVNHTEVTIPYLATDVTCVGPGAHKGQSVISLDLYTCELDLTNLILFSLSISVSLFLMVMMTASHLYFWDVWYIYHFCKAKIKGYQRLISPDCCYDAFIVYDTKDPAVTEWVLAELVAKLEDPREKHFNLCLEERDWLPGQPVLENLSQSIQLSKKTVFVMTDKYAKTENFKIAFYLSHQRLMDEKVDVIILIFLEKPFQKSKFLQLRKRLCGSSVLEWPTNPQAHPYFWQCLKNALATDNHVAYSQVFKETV
Description: HEK293-Blue-hTLR-7 cells assay (SEAP reporter). Format: cell-based. To be noted: 20 hours incubation. The text has this: A stable HEK293-Blue-hTLR-7 cell line was purchased from InvivoGen (Cat.#: hkb-ht1r7, San Diego, Calif., USA). These cells were designed for studying the stimulation of human TLR7 by monitoring the activation of NF-κB. A SEAP (secreted embryonic alkaline phosphatase) reporter gene was placed under the control of the IFN-β minimal promoter fused to five NF-κB and AP-1-binding sites. The SEAP was induced by activating NF-κB and AP-1 via stimulating HEK-Blue hTLR7 cells with TLR7 ligands. Therefore the reporter expression was regulated by the NF-κB promoter upon stimulation of human TLR7 for 20 hours. The cell culture supernatant SEAP reporter activity was determined using QUANTI-Blue™ kit (Cat.#: rep-qb1, Invivogen, San Diego, Calif., USA) at a wavelength of 640 nm, a detection medium that turns purple/blue in the presence of alkaline phosphatase.
HEK293-Blue-hTLR7 cells were incubated at a density of 250,000˜450,000 cells/mL in a volume of 180 μL in a 96-well plate in Dulbecco's Modified Eagle's medium (DMEM) containing 4.5 g/L glucose, 50 U/mL penicillin, […] streptomycin, […] Normocin, 2 mM L-glutamine, 10% (v/v) heat-inactivated fetal bovine serum for 24 h. Then the HEK293-Blue-hTLR-7 cells were incubated with addition of 20 μL test compound in a serial dilution in the presence of final DMSO at 1% and perform incubation under 37° C. in a CO2 incubator for 20 hours. Then 20 μL of the supernatant from each well was incubated with 180 μL Quanti-blue substrate solution at 37° C. for 2 h and the absorbance was read at 620˜655 nm using a spectrophotometer. The signalling pathway that TLR7 activation leads to downstream NF-κB activation has been widely accepted, and therefore similar reporter assay was also widely used for evaluating TLR7 agonist (Tsuneyasu Kaisho and Takashi Tanaka, Trends in Immunology, Volume 29, Issue 7, July 2008, […]; Hiroaki Hemmi et al, Nature Immunology 3, 196-200 (2002).

The target in the next test is T2, murine TLR7 (Mus musculus, UniProt P58681).
T2 sequence (P58681 27-1050): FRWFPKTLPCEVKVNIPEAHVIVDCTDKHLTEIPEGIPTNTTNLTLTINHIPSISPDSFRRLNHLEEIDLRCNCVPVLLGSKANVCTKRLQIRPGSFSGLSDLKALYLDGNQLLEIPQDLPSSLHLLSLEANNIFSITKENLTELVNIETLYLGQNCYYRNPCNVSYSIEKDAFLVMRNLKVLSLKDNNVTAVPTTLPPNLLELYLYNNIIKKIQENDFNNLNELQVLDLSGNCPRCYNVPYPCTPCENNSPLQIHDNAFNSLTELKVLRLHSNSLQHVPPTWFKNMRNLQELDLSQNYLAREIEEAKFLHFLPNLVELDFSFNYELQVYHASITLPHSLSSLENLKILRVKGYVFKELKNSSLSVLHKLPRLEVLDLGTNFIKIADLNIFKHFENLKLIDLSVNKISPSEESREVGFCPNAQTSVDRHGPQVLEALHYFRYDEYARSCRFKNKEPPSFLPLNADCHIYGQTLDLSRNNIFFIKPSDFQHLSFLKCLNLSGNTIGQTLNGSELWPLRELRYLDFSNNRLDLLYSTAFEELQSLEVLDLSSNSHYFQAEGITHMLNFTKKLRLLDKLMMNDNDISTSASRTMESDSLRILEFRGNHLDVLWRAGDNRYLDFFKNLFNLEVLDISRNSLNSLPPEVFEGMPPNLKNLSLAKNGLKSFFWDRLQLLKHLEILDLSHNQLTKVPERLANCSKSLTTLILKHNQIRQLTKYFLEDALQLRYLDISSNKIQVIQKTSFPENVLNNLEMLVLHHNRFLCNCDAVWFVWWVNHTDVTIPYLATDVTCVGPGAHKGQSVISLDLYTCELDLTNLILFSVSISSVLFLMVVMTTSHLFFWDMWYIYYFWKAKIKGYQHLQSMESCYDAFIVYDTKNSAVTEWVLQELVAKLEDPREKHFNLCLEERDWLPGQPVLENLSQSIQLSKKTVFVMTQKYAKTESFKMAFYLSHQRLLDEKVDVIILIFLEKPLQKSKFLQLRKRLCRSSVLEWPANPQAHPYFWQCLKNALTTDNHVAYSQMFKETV
In words: HEK293-Blue-mTLR7 assay (SEAP reporter). The test is classed as cell-based. To be noted: HEK293-Blue-mTLR7 cells, 20 hours, Quanti-Blue; read-out: EC50 murine TLR7 activation. Here is the method: The potency of the TLR7 agonist Example 4-A was assessed in murine TLR7 activation using a stable HEK293-Blue-mTLR7 cell line purchased from InvivoGen (Cat.#: hkb-mt1r7, San Diego, Calif., USA). Similar to the HEK293-Blue-hTLR7 as described in Example 26, the HEK293-Blue-mTLR7 was designed for studying the stimulation of murine TLR7 by monitoring the activation of NF-κB. A SEAP reporter gene was placed under the control of the IFN-β minimal promoter fused to five NF-κB and AP-1-binding sites. SEAP expression was induced by the activation of NF-κB and AP-1 upon stimulation of murine TLR7 with TLR7 ligands. SEAP expression in cell culture supernatant was determined using QUANTI-Blue™ kit (Cat.#: rep-qb1, Invivogen, San Diego, Ca, USA) at a wavelength of 640 nm, a detection medium that turns purple/blue in the presence of alkaline phosphatase.
HEK293-Blue-mTLR7 cells were incubated at a density of 250,000˜450,000 cells/mL in a volume of 180 μL in a 96-well plate in Dulbecco's Modified Eagle's medium (DMEM) containing 4.5 g/L glucose, 50 U/mL penicillin, […], […], 2 mM L-glutamine, 10% (v/v) heat-inactivated fetal bovine serum for 24 h. […] Then 20 μL of the supernatant from each well was incubated with 180 μl Quanti-blue substrate solution at 37° C. for 2 hours and the absorbance was read at 640 nm using a spectrophotometer.

On to `Nc1nc2c(sc(=O)n2[C@H]2CS[C@@H](C(O)C3CC3)O2)c(=O)[nH]1` (single isomer, unassigned) [Example 4-A], for which the EC50 amounted to 7.9 µM on human TLR7 and 7.8 µM at murine TLR7.
